Calls of active or inactive are those of the source. No cut-off for these calls is given here.
Assays:
HT-29 [1] = experiment: Cell cycle arrest in human HT-29 cells assessed as accumulation at sub-G1 phase at 5 uM after 24 hrs by propidium iodide staining based flow cytometric analysis (reference value: 0.9 +/- 0.1%); type: functional
[2] = Cytotoxicity against HDFa after 72 hrs by MTT assay; type: cell-based; settings: Homo sapiens
[3] = Toxicity in 6 days post fertilized chicken egg chorioallantoic/vitelline membrane assessed as irritation of chorioallantoic/vitelline membrane at 10 nmol administered topically measured after 24 hrs; parameters: species or system Gallus gallus; settings: in vivo, topical_or_ocular
[4] = (§1) Cytotoxicity against human U87 cells after 72 hrs by MTT assay; type: functional, cell-based, U-87MG ATCC; settings: U-87 MG
U-87MG ATCC [5] = experiment: as §1; type: functional, cell-based
518A2 [6] = experiment: Anti-migratory activity in human 518A2 cells assessed as wound closure at 250 nM after 24 hrs by light microscopic analysis; type: functional, cell-based
U-87MG ATCC [7] = experiment: Anti-vasculogenic activity in human U87 cells assessed as reduction in formation of small stray colonies at 1 uM after 24 hrs by matrigel based light microscopic analysis; type: functional, cell-based
Homo sapiens = organism: Homo sapiens; experiment: Inhibition of NF-kappaB in human 518A2 cells assessed as reduction in p65 subunit expression at 0.5 to 1 uM after 24 hrs by Western blot analysis; type: cell-based
518A2 [8] = experiment: Cytotoxicity against human 518A2 cells after 72 hrs by MTT assay; type: functional, cell-based
[9] = (§2) Cytotoxicity against human KB-V1/Vbl cells after 72 hrs by MTT assay; type: functional, cell-based
KB-V1/Vbl = experiment: as §2; type: functional, cell-based
Gallus gallus [10] = experiment: Vascular disruptive activity in 6 days post fertilized chicken egg chorioallantoic/vitelline membrane assessed as degradation of blood vessels at 10 nmol administered topically measured after 6 hrs by stereo-microscopic analysis; type: functional
HT-29 [11] = experiment: Cell cycle arrest in human HT-29 cells assessed as accumulation at sub-G1 phase at 2.5 uM after 24 hrs by propidium iodide staining based flow cytometric analysis (reference value: 0.9 +/- 0.1%); type: functional
PANC-1 = experiment: Cytotoxicity against human PANC1 cells after 72 hrs by MTT assay; type: functional, cell-based
HT-29 [12] = experiment: Cytotoxicity against human HT-29 cells after 72 hrs by MTT assay; type: functional, cell-based
U-87MG ATCC [13] = experiment: Anti-vasculogenic activity in human U87 cells assessed as reduction in formation of cord-like structures at 1 uM after 24 hrs by matrigel based light microscopic analysis; type: functional, cell-based
Gallus gallus [14] = experiment: Vascular disruptive activity in 6 days post fertilized chicken egg assessed as area covered by blood vessels at 10 nmol administered topically measured after 6 hrs by light microscopic analysis relative to control; type: functional
HT-29 [15] = experiment: Cell cycle arrest in human HT-29 cells assessed as accumulation at sub-G1 phase at 1 uM after 24 hrs by propidium iodide staining based flow cytometric analysis (reference value: 0.9 +/- 0.1%); type: functional
DLD-1 = experiment: Cytotoxicity against human DLD1 cells after 72 hrs by MTT assay; type: functional, cell-based
[16] = (§3) Cytotoxicity against human MCF7/Topo cells after 72 hrs by MTT assay; type: functional, cell-based
MCF7/Topo = experiment: as §3; type: functional, cell-based
HT-29 [17] = experiment: Cell cycle arrest in human HT-29 cells assessed as accumulation at S phase at 1 uM after 24 hrs by propidium iodide staining based flow cytometric analysis (reference value: 15.6 +/- 0.3%); type: functional
HT-29 [18] = experiment: Cell cycle arrest in human HT-29 cells assessed as accumulation at G2/M phase at 5 uM after 24 hrs by propidium iodide staining based flow cytometric analysis (reference value: 15.5 +/- 0.5%); type: functional
HT-29 [19] = experiment: Cell cycle arrest in human HT-29 cells assessed as accumulation at G2/M phase at 2.5 uM after 24 hrs by propidium iodide staining based flow cytometric analysis (reference value: 15.5 +/- 0.5%); type: functional
HT-29 [20] = experiment: Cell cycle arrest in human HT-29 cells assessed as accumulation at G1 phase at 2.5 uM after 24 hrs by propidium iodide staining based flow cytometric analysis (reference value: 68 +/- 0.9%); type: functional
HT-29 [21] = experiment: Upregulation of cyclin B1 expression in human HT-29 cells at 0.5 to 0.75 uM after 24 hrs by Western blot analysis; type: functional, cell-based
U-87MG ATCC [22] = experiment: Anti-vasculogenic activity in human U87 cells assessed as reduction in formation of blood-vessel like tubular structures at 1 uM after 24 hrs by matrigel based light microscopic analysis; type: functional, cell-based
[23] = Cytotoxicity against human U87 cells assessed as cell viability at 10 nmol after 24 hrs by MTT assay relative to control; type: cell-based, U-87MG ATCC; settings: read-out: Activity
HT-29 [24] = experiment: Cell cycle arrest in human HT-29 cells assessed as accumulation at G1 phase at 1 uM after 24 hrs by propidium iodide staining based flow cytometric analysis (reference value: 68 +/- 0.9%); type: functional
518A2 [25] = experiment: Anti-migratory activity in human 518A2 cells assessed as wound closure at 250 nM after 48 hrs by light microscopic analysis (reference value: 100%); type: functional
HCT-116 = experiment: Cytotoxicity against human HCT116 cells after 72 hrs by MTT assay; type: functional, cell-based
Danio rerio = organism: Danio rerio; experiment: Antiangiogenic activity in 72 hrs post fertilized zebra fish embryo harboring fli1a:EGFP assessed as area of subintestinal veins at 10 uM after 48 hrs by fluorescence microscopic analysis (reference value: 100%); type: functional
HT-29 [26] = experiment: Cell cycle arrest in human HT-29 cells assessed as accumulation at G2/M phase at 1 uM after 24 hrs by propidium iodide staining based flow cytometric analysis (reference value: 15.5 +/- 0.5%); type: functional
HT-29 [27] = experiment: Cell cycle arrest in human HT-29 cells assessed as accumulation at S phase at 2.5 uM after 24 hrs by propidium iodide staining based flow cytometric analysis (reference value: 15.6 +/- 0.3%); type: functional
HT-29 [28] = experiment: Cell cycle arrest in human HT-29 cells assessed as accumulation at G1 phase at 5 uM after 24 hrs by propidium iodide staining based flow cytometric analysis (reference value: 68 +/- 0.9%); type: functional
HT-29 [29] = experiment: Cell cycle arrest in human HT-29 cells assessed as accumulation at S phase at 5 uM after 24 hrs by propidium iodide staining based flow cytometric analysis (reference value: 15.6 +/- 0.3%); type: functional

With `CCN1C/C(=C\c2ccc(S(F)(F)(F)(F)F)cc2)C(=O)/C(=C/c2ccc(S(F)(F)(F)(F)F)cc2)C1` the Activity (HT-29 [1]) was 16.6%, the IC50 [2] was 3200 nM and the Activity [3] was “Toxic”. For the same compound, the IC50 [4] was 930 nM, the Activity (U-87MG ATCC [5]) was “Dose-dependent effect” and the Activity (518A2 [6]) was “Active”. The Activity (U-87MG ATCC [7]) was “inactive”, the inhibition (Homo sapiens) was “Active” and the Activity (518A2 [8]) was “Dose-dependent effect”. For the same compound, the IC50 (518A2 [8]; 518A2, 72 h) was 990 nM, the IC50 [9] was 640 nM and the Activity (KB-V1/Vbl) was “Dose-dependent effect”. The Activity (Gallus gallus [10]) was “Active”, the Activity (HT-29 [11]) was 12.8% and the Activity (PANC-1) was “Dose-dependent effect”. The IC50 (PANC-1; PANC-1, 72 h) was 1100 nM, the Activity (HT-29 [12]) was “Dose-dependent effect” and the IC50 (HT-29 [12]; HT-29, 72 h) was 290 nM. The Activity (U-87MG ATCC [13]) was “inactive”, the Activity (Gallus gallus [14]) was 67% and the Activity (HT-29 [15]) was 13.2%. For the same compound, the Activity (DLD-1) was “Dose-dependent effect”, the IC50 (DLD-1; DLD-1, 72 h) was 330 nM and the IC50 [16] was 400 nM. The Activity (MCF7/Topo) was “Dose-dependent effect”, the Activity (HT-29 [17]) was 8.1% and the Activity (HT-29 [18]) was 31%. For the same compound, the Activity (HT-29 [19]) was 32.1%, the Activity (HT-29 [20]) was 43.1% and the Activity (HT-29 [21]) was “Active”. The Activity (U-87MG ATCC [22]) was “inactive”, the viability at 24 h, 10 nmol [23] was over 85% and the Activity (HT-29 [24]) was 46.7%. For the same compound, the Activity (518A2 [25]) was 77%, the Activity (HCT-116) was “Dose-dependent effect” and the IC50 (HCT-116; HCT-116, 72 h) was 240 nM. It also gave an Activity (Danio rerio) of 51%, an Activity (HT-29 [26]) of 32.1% and an Activity (HT-29 [27]) of 12%. The Activity (HT-29 [28]) was 35.9% and the Activity (HT-29 [29]) was 16.5%.

From ChEMBL document CHEMBL4043139, “Fluoro and pentafluorothio analogs of the antitumoral curcuminoid EF24 with superior antiangiogenic and vascular-disruptive effects” (Bioorg Med Chem, 2017)
